{
  "source": "patent US11965161B2",
  "about": "“Methods and compositions for sensitization of tumor cells to immune therapy” (Regeneron Pharmaceuticals, Inc., priority 2020, dated 2024)",
  "molecules": {"B1": {"name": "TNFα: Recombinant mouse and human TNFα from PeproTech (protein)", "chain": "LRSSSQNSSDKPVAHVVANHQVEEQLEWLSQRANALLANGMDLKDNQLVVPADGLYLVYSQVLFKGQGCPDYVLLTHTVSRFAISYQEKVNLLSAVKSPCPKDTPEGAELKPWYEPIYLGGVFQLEKGDQLSAEVNLPKYLDFAESGQVYFGVIAL"}},
  "key": {"[1]": {"tested_on": "MC38 cells", "assay": "Western blots of MC38 cell lysates (caspase-8, p62, Iκ-Bα, phospho-S6)", "type": "cell-based, mouse", "conditions": "5 μM autophinib", "procedure": "(§1) Whole cell lysates were prepared in tris-glycine SDS sample buffer (ThermoFisher) containing 5% 2-mercaptoethanol. Western blotting was performed by conventional techniques using tris-glycine polyacrylamide SDS gels (ThermoFisher) and PVDF membranes (BioRad). Blots were blocked in 5% milk powder and 0.5% Tween-20 in TBS and then incubated overnight with primary antibodies. After addition of secondary antibodies, membranes were incubated with SuperSignal West Pico Plus or Femto substrate (ThermoFisher) and luminescence was captured with a C300 imager (Azure Biosystems). Primary antibodies against TAK1, Rbck1, Re1A p65, Rb1cc1, Atg12, cleaved caspase-8, procaspase-8, RIPK1, RIPK1 phospo-Ser321, RIPK1 phospho-Ser166, Iκ-Bα, A20, p62, phospho-p65, LC3B, TNFR1 (CST), Atg9a (Novus), cIAP1 (Enzo), β2M (ThermoFisher), FADD and ICAM (Abcam) were used. Horseradish peroxidase-conjugated β-Actin antibody and secondary antibodies against mouse IgG, rabbit IgG and goat IgG were from Santa Cruz Biotechnology."}, "[2]": {"tested_on": "ZR-75-1 human breast cancer cells", "assay": "Western blots of ZR-75-1 cells (p62, caspase-8)", "type": "cell-based", "conditions": "5 μM inhibitor, 16 hours; for p62 levels: ZR-75-1 cells; for TNFα-induced activation of caspase-8: human breast cancer cells ZR-75-1, 10 ng/ml TNFα", "procedure": "as §1"}, "[3]": {"tested_on": "HCT-116 and HeLa human cancer cells", "assay": "TNFα- and TRAIL-mediated killing of human cancer cells with or without autophinib, cell viability", "type": "cell-based", "conditions": "5 μM autophinib, 24 hours", "procedure": "(§2) The effects of TNFα, TRAIL, doxorubicin or paclitaxel on cell viability were assessed following 24 hour incubations at the indicated concentrations. The effects of 5 μM autophinib or SAR-405 on TNFα (10 ng/ml) or TRAIL (10 ng/ml or 50 ng/ml) induced killing were assessed following 24 hour incubations unless otherwise indicated. In all cases, cell viability was measured using CCK8 cell counting kit-8 (CCK-8) reagent, which is reduced by dehydrogenase activities in cells to give a yellow-colored formazan dye (Dojindo). The absorbance was measured using a SpectraMax M3 microplate reader (Molecular Devices)."}, "[4]": {"tested_on": "MC38 cells", "assay": "TNFα-induced killing of MC38 cells, cell viability (CCK-8)", "type": "cell-based, mouse", "conditions": "for TNFα-mediated killing in Rb1cc1 KO cells: Rb1cc1 KO MC38 cells, 25 μM z-VAD-FMK or 50 μM Nec-1", "procedure": "as §2"}, "[5]": {"tested_on": "multiple mouse and human cancer cell lines", "assay": "TNFα-mediated killing in a panel of cancer cell lines with or without autophagy inhibitor", "type": "cell-based", "conditions": "10 ng/ml TNFα, 5 μM inhibitor, 24 hours, EMT6, LL/2, CT26, Colon26, BT-20, Me-180, MDA-MB-361, ZR-75-1", "procedure": "as §2"}, "[6]": {"tested_on": "HCT-116 and HeLa human cancer cells", "assay": "Western blots of HCT-116 and HeLa cells after TRAIL with or without autophinib", "type": "cell-based", "conditions": "human cancer cells (HCT-116, HeLa), 10 or 50 ng/ml TRAIL, 24 hours", "procedure": "as §1"}, "[7]": {"tested_on": "ZR-75-1 human breast cancer cells", "assay": "CD3 bispecific antibody-induced killing of ZR-75-1 cells by human T cells", "type": "cell-based", "conditions": "12 ng/ml bispecific antibody, 5 μM SAR-405, 24 hours", "excerpt": "CD8^+ T cells were isolated from spleens and lymph nodes of 6-8 week old male OT-1 mice. These mice contain transgenic inserts for mouse Tcra-V2 and Tcrb-V5 genes. The transgenic T cell receptor was designed to recognize ovalbumin peptide residues 257-264 in the context of H-2Kb MHC class I protein. In some experiments, human CD8+ T cells were isolated from PBMCs. T cells were activated in vitro with CD3/CD28 beads at a 1:2 bead:cell ratio for 2-3 days. T cells were activated in RPMI-1640 medium containing 20 ng/ml mouse IL-2, 10% heat inactivated fetal bovine serum, 20 mM HEPES, 2 mM L-glutamine, 1 mM sodium pyruvate, 0.05 mM 2-mercaptoethanol and 50 U/ml penicillin/streptomycin. For human tumor cell killing experiments using CD3 bispecific antibody, human T cells were isolated from peripheral blood mononuclear cells (PBMCs) (ReachBio) using Dynabeads Untouched Human T Cells Kit (Thermo Fisher Scientific).\nHuman ZR-75-1 cells were seeded at 100,000 cells per 24 well. After 24 hours, cells were incubated with activated CD8^+ T cells (isolated from human PBMCs) at the indicated E:T ratios for 24 hours in the presence of 12 ng/ml breast tumor antigen×CD3 or control (doesn't bind to ZR-75-1 cells) bispecific antibodies in the absence or presence of 5 μM autophagy inhibitor SAR-405."}, "[8]": {"tested_on": "CT26, B16F10, 4T1, EMT6, MC38 tumor cell lines", "assay": "TNFα-induced caspase-8 activation and apoptosis in a panel of tumor cell lines", "type": "cell-based, mouse", "conditions": "24 hours", "procedure": "as §2\nWhole cell lysates were prepared in tris-glycine SDS sample buffer (ThermoFisher) containing 5% 2-mercaptoethanol. Western blotting was performed by conventional techniques using tris-glycine polyacrylamide SDS gels (ThermoFisher) and PVDF membranes (BioRad). Blots were blocked in 5% milk powder and 0.5% Tween-20 in TBS and then incubated overnight with primary antibodies. After addition of secondary antibodies, membranes were incubated with SuperSignal West Pico Plus or Femto substrate (ThermoFisher) and luminescence was captured with a C300 imager (Azure Biosystems). […]"}},
  "note": "“Also recorded” adds a separate entry of the source. Residues, ends and D or L forms follow the SMILES beside them. *: point of attachment. Cbz = O=C(OCc1ccccc1)*; CH2F = FC*",
  "data": [
    {"molecule": "Cc1cc(Nc2cc(Cl)nc(Oc3ccc([N+](=O)[O-])cc3)n2)n[nH]1", "note": "[autophinib]", "values": [
      {"measurement": "TNFα-mediated degradation of Iκ-Bα", "setting": "[1]; 10 ng/ml TNFα 30 minutes", "result": "did not affect"},
      {"measurement": "TNFα-mediated caspase-8 activation", "setting": "[1]; 10 ng/ml TNFα 4 hours", "result": "increased"},
      {"measurement": "levels of p62", "setting": "[1]; 4 hours", "result": "significantly increased"},
      {"measurement": "p62 levels", "setting": "[2]", "result": "significantly increased"},
      {"measurement": "TNFα-induced activation of caspase-8", "setting": "[2]", "result": "enhanced"},
      {"measurement": "sensitization to TNFα- and TRAIL-mediated killing", "setting": "[3]; HCT-116 (10 ng/ml TNFα or TRAIL), HeLa (50 ng/ml TRAIL)", "result": "sensitizes"},
      {"measurement": "induction of apoptosis by TRAIL", "setting": "[3]; human cancer cells (HCT-116, HeLa), 10 or 50 ng/ml TRAIL", "result": "increased"},
      {"measurement": "TNFα-mediated killing (relative cell viability)", "setting": "[4]; MC38 cells, 10 ng/ml TNFα, 5 μM autophinib, 16 hours", "result": "increased"},
      {"measurement": "killing by TNFα in multiple mouse and human cancer cell lines", "setting": "[5]", "result": "significantly increased; also recorded: sensitizes"},
      {"measurement": "activation of caspase-8 by TRAIL", "setting": "[6]", "result": "increased"}
    ]},
    {"molecule": "C[C@@H]1COCCN1c1cc(=O)n2c(n1)N(Cc1cncc(Cl)c1)[C@H](C(F)(F)F)CC2", "note": "[SAR405]", "values": [
      {"measurement": "tumor cell killing by human T cells with breast tumor antigen×CD3 bispecific antibody", "setting": "[7]", "result": "significantly increased"},
      {"measurement": "p62 levels", "setting": "[2]", "result": "significantly increased"},
      {"measurement": "TNFα-induced activation of caspase-8", "setting": "[2]", "result": "enhanced"},
      {"measurement": "killing by TNFα in multiple mouse and human cancer cell lines", "setting": "[5]", "result": "significantly increased"},
      {"measurement": "killing by TNFα in multiple mouse and human cancer cell lines", "setting": "[5]; listed as SAR-405", "result": "sensitizes"}
    ]},
    {"molecule": "COC(=O)C[C@H](NC(=O)[C@H](C)NC(=O)[C@@H](NC(=O)OCc1ccccc1)C(C)C)C(=O)CF", "note": "[z-VAD-FMK] (Cbz-Val-Ala-Asp(OMe)-CH2F)", "values": [
      {"measurement": "TNFα killing of MC38 cells in presence of caspase inhibitor", "setting": "[4]; 25 μM z-VAD-FMK, 10 ng/ml TNFα, 24 hours", "result": "blocked"},
      {"measurement": "TNFα-mediated killing in Rb1cc1 KO cells", "setting": "[4]; 24 hours", "result": "blocked"}
    ]},
    {"molecule": "CN1C(=O)C(Cc2c[nH]c3ccccc23)NC1=S", "note": "(stereo not drawn) [necropsis inhibitor]", "values": [
      {"measurement": "TNFα-mediated killing in Rb1cc1 KO cells", "setting": "[4]; 24 hours", "result": "had no effect"}
    ]},
    {"molecule": "B1", "values": [
      {"measurement": "killing by TNFα", "setting": "[8]; CT26, B16F10, 4T1 cells", "result": "not killed"},
      {"measurement": "TNFα-induced caspase-8 activation and apoptosis", "setting": "[8]; EMT6 and MC38 cells", "result": "exhibited TNFα-induced caspase-8 activation and apoptosis"},
      {"measurement": "MC38 cell death by soluble TNFα", "setting": "[4]; 10 ng/ml TNFα, 24 hours", "result": "promoted MC38 cell death"}
    ]}
  ]
}
